The target of one data set is T1, GSK-3β (AA 1-420) (Homo sapiens, UniProt P49841).
T1 construct: GSK-3β (AA 1-420)
Nature of the data set: Ki determination for the inhibition of GSK-3 (coupled enzyme system). It is filed as biochemical. Conditions: 20 μM ATP, 20 nM GSK-3β, 30° C. The method in brief: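 GSK-3β (AA 1-420, 20 nM) was run in a pyruvate kinase/LDH-coupled NADH assay in 100 mM HEPES pH 7.5, 10 mM MgCl2, 25 mM NaCl, 1 mM DTT, 1.5% DMSO, with 300 μM phosphopeptide substrate. Compound (0.002–30 μM) was preincubated 10 min at 30° C, then 20 μM ATP was added.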

The target of another data set is T2, human Src kinase (Homo sapiens, UniProt P12931).
T2 construct: full length recombinant human Src kinase (from Upstate Biotechnology, cat. no. 14-117); purchased Upstate Biotechnology 14-117; host or cells: baculo viral cells
T2 sequence (P12931 whole entry): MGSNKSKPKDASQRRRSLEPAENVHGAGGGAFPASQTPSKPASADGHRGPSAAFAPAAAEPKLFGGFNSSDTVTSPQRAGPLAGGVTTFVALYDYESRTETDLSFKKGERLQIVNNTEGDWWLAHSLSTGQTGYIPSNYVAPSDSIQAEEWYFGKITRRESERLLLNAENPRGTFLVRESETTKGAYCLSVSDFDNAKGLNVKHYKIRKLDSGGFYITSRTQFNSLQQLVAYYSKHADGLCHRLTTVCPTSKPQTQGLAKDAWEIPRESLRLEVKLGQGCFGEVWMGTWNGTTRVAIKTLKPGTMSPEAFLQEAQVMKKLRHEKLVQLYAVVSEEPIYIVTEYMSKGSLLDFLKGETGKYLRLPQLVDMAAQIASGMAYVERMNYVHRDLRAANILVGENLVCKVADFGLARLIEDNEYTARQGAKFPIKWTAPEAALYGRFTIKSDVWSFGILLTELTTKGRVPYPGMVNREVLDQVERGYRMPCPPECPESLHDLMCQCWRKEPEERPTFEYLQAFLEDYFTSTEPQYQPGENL
Nature of the data set: SRC inhibition assay (radioactivity-based or spectrophotometric assay). Conditions: recombinant human Src kinase, assay A or B. It is filed as biochemical. As to the method:
The compounds were evaluated as inhibitors of human Src kinase using either a radioactivity-based assay or spectrophotometric assay. The compounds were assayed as inhibitors of full length recombinant human Src kinase (from Upstate Biotechnology, cat. no. 14-117) expressed and purified from baculo viral cells. […] P-0275). […] In a typical assay, all the reaction components with the exception of ATP were pre-mixed and aliquoted into assay plate wells. […] The assay plate was incubated at 30° C. for 10 min before initiating the reaction with ^33P-ATP. After 20 min of reaction, the reactions were quenched with 150 μl of 10% trichloroacetic acid (TCA) containing 20 mM Na3PO4. The quenched samples were then transferred to a 96-well filter plate (Whatman, UNI-Filter GF/F Glass Fiber Filter, cat no. 7700-3310) installed on a filter plate vacuum manifold. Filter plates were washed four times with 10% TCA containing 20 mM Na3PO4 and then 4 times with methanol. 200 μl of scintillation fluid was then added to each well. The plates were sealed and the amount of radioactivity associated with the filters was quantified on a TopCount scintillation counter. The radioactivity incorporated was plotted as a function of the inhibitor concentration. The data was fitted to a competitive inhibition kinetics model to get the Ki for the compound. The ADP produced from ATP by the human recombinant Src kinase-catalyzed phosphorylation of poly Glu-Tyr substrate was quanitified using a coupled enzyme assay (Fox et al (1998) Protein Sci 7, 2249). In this assay one molecule of NADH is oxidised to NAD for every molecule of ADP produced in the kinase reaction. The disappearance of NADH can be conveniently followed at 340 nm. […] In a typical assay, all the reaction components with the exception of ATP were pre-mixed and aliquoted into assay plate wells. […] The absorbance change at 340 nm with time, the rate of the reaction, was monitored on a molecular devices plate reader. The data of rate as a function of the inhibitor concentration was fitted to competitive inhibition kinetics model to get the Ki for the compound.

In another data set the target is T3, Aurora-2 (Homo sapiens, UniProt O14965).
T3 sequence (O14965 1-403): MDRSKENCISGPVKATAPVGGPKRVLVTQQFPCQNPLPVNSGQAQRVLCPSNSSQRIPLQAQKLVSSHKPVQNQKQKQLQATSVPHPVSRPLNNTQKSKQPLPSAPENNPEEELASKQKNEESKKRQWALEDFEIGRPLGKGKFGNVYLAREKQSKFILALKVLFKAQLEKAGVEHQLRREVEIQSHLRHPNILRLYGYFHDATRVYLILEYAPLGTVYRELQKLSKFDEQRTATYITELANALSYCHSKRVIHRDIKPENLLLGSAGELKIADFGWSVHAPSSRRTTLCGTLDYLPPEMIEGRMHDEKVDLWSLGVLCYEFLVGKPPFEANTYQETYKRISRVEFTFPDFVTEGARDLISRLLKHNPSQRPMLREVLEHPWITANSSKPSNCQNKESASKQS
Nature of the data set: Ki determination for the inhibition of Aurora-2 (coupled enzyme assay). It is filed as biochemical. Conditions: 70 nM Aurora-2, 30° C. The gist of the method:
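Ki came from reaction rates plotted against inhibitor concentration, with rates taken as A340 decrease over 5 min at 30° C. Enzyme (70 nM final) was added after 10 min compound preincubation; stock buffer held […], 800 μM LRRASLG, PK/LDH coupling, pH 7.5.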

Experimental findings from patent publication US6653300B2, “Pyrazole compounds useful as protein kinase inhibitors” (Vertex Pharmaceuticals Incorporated, priority 2000, dated 2003) are described below.

Like-named read-outs stand apart in the source and are kept apart here.

T1 sequence (P49841 whole entry, the tested form may be a part): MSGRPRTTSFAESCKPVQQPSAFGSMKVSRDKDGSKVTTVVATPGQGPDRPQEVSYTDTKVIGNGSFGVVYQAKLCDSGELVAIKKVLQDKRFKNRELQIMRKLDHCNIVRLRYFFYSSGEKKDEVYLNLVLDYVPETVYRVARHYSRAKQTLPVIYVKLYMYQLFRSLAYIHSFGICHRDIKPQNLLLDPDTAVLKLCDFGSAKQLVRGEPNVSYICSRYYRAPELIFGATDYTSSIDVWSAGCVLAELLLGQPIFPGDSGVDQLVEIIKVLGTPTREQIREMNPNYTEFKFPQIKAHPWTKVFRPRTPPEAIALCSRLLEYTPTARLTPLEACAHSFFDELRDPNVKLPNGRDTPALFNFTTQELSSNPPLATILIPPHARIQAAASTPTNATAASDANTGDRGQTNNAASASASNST

`COCCNc1cc(Nc2cc(C)[nH]n2)nc(SCc2ccc(S(=O)(=O)N3CCOCC3)cc2)n1` [IIIa-36, {6-(2-Methoxy-ethylamino)-2-[4-(morpholinesulfonyl)-benzylsulfanyl]-pyrimidin-4-yl}-(5-methyl-2H-pyrazol-3-yl)-amine]: the melting point is 193 to 195 °C. The molecule also showed a Ki at GSK-3β (AA 1-420) of 1000 to 7000 nM. Further, the Ki at human Src kinase (read-out: Ki value for SRC) was in the range of 1000 to 6000 nM.
Taken in the same sequence, the figures for `Cc1cc(Nc2cc(N3CCN(C)CC3)nc(SCc3ccc(S(=O)(=O)N4CCOCC4)cc3)n2)n[nH]1` [IIIa-37, {6-(4-methylpiperazin-1-yl)-2-[4-(morpholinesulfonyl)-benzylsulfanyl]-pyrimidin-4-yl}-(5-methyl-2H-pyrazol-3-yl)-amine] were 206 to 207 °C, 100 to 1000 nM and 1000 to 6000 nM.
Take `CC(=O)Nc1ccc(Sc2nc(Nc3cc(C)n[nH]3)cc(N3CCOCC3)n2)cc1` [IIIa-44, [2-(4-Acetamidophenylsulfanyl)-6-(morpholin-4-yl)-pyrimidin-4-yl]-(5-methyl-2H-pyrazol-3-yl)-amine]: the Ki on human Src kinase (read-out: Ki value for SRC) is 1000 to 6000 nM.
In the case of `c1ccc(-c2cc(Nc3cc(C4CC4)[nH]n3)nc(Sc3ccc4ccccc4c3)n2)cc1` [IIIa-1, (5-Cyclopropyl-2H-pyrazol-3-yl)-[2-(naphtalen-2-ylsulfanyl)-6-phenylpyrimidin-4-yl]-amine], the melting point was 233 to 234 °C. For the same molecule, on GSK-3β (AA 1-420), the Ki was 100 to 1000 nM. Besides, the Ki at human Src kinase (read-out: Ki value on SRC) is less than 100 nM.
`Cc1cc(Nc2cc(-c3ccccc3)nc(Sc3ccc(NC(=O)CN(C)C)cc3)n2)n[nH]1` [IIIa-25, {2-[4-(2-Dimethylamino-acetylamino)-phenylsulfanyl]-6-phenyl-pyrimidin-4-yl}-(5-methyl-2H-pyrazol-3-yl)-amine] had a melting point of 213 to 215 °C. For the same molecule, the Ki at human Src kinase (read-out: Ki value for SRC) lay in the range of 1000 to 6000 nM.
In the case of `CC(=O)Nc1ccc(Nc2nc(Nc3cc(C)[nH]n3)c3ccccc3n2)cc1C` [IIc-48, [2-(4-acetamido-3-methylphenylamino)-quinazolin-4-yl]-(5-methyl-2H-pyrazol-3-yl)-amine], the melting point was 251 °C. The molecule further registered a Ki at Aurora-2 of less than 100 nM. For the same molecule, the Ki on GSK-3β (AA 1-420) was in the range of 100 to 1000 nM.
Taken in the same sequence, the figures for `Cc1cccc(Nc2nc(Nc3cc(C)[nH]n3)c3ccccc3n2)c1` [IIc-50, [2-(3-Methylphenylamino)-quinazolin-4-yl]-(5-methyl-2H-pyrazol-3-yl)-amine] were 240 to 242 °C, less than 100 nM and 100 to 1000 nM.
For `O=C(O)c1cccc(Nc2nc(Nc3cc(C4CC4)[nH]n3)c3ccccc3n2)c1` [IIc-40, [2-(3-Carboxyphenylamino)-quinazolin-4-yl]-(5-cyclopropyl-2H-pyrazol-3-yl)-amine] the same measures were 298 to 302 °C, less than 100 nM and 100 to 1000 nM.
The molecule `Cc1cc(Nc2nc(Sc3nccn3C)nc3ccccc23)n[nH]1` [IIa-10, [2-(1-Methylimidazol-2-ylsulfanyl)-quinazolin-4-yl]-(5-methyl-2H-pyrazol-3-yl)-amine] returned a melting point of 255 to 256 °C. Moreover, the Ki on Aurora-2 fell in the range of 1000 to 10000 nM. In addition, the Ki at GSK-3β (AA 1-420) fell in the range of 1000 to 7000 nM.
`Cc1cc(Nc2nc(Sc3ccc(NC(=O)C(C)C)cc3)nc3ccccc23)n[nH]1` [IIa-49, [2-(4-Isobutyrylamino-phenylsulfanyl)-quinazolin-4-yl]-(5-methyl-2H-pyrazol-3-yl)-amine] gave a melting point of 285 to 287 °C. In addition, the Ki at Aurora-2 was less than 100 nM. For the same molecule, the Ki on GSK-3β (AA 1-420) lay within 1000 to 7000 nM.
Take `Cc1cc(Nc2cc(-c3ccccc3)nc(Sc3ccc(NC(=O)C(C)C)cc3)n2)n[nH]1` [IIIa-13, [2-(4-Isobutyrylylamino-phenylsulfanyl)-6-phenylpyrimidin-4-yl]-(5-methyl-2H-pyrazol-3-yl)-amine]: the melting point was 201 to 202 °C. Moreover, the Ki on human Src kinase (read-out: Ki value for SRC) was in the range of 1000 to 6000 nM.
`Cc1cc(Nc2nc(Nc3cccc(O)c3)nc3ccccc23)n[nH]1` [IIc-17, [2-(3-Hydroxyphenylamino)-quinazolin-4-yl]-(5-methyl-2H-pyrazol-3-yl)-amine] yielded a melting point greater than 250 °C. The inhibition constant (Ki) at Aurora-2 is less than 100 nM. On GSK-3β (AA 1-420), this molecule gave a Ki of 100 to 1000 nM.
Taken in the same sequence, the figures for `c1ccc2c(Nc3cc(C4CC4)[nH]n3)nc(Nc3ccc(N4CCOCC4)cc3)nc2c1` [IIc-52, (5-Cyclopropyl-2H-pyrazol-3-yl)-{2-[4-(morpholin-1-yl)phenylamino]-quinazolin-4-yl}-amine] were 275 to 276 °C, less than 100 nM and 100 to 1000 nM.
`Cc1cc(Nc2nc(Sc3ccc(C(=O)NCCN(C)C)cc3)nc3ccccc23)n[nH]1` [IIa-67, {2-[4-(2-Dimethylamino-ethylcarbamoyl)-phenylsulfanyl]-quinazolin-4-yl}-(5-methyl-2H-pyrazol-3-yl)-amine] gave a melting point of 192 to 193 °C. The molecule also showed a Ki at Aurora-2 of 100 to 1000 nM. Moreover, at GSK-3β (AA 1-420), the Ki was in the range of 1000 to 7000 nM.
In turn, `Cc1cc(Nc2nc(Nc3ccc4c(c3)OCCO4)nc3ccccc23)n[nH]1` [IIc-7, [2-(2,3-Dihydrobenzo[1,4]dioxin-6-ylamino)-quinazolin-4-yl]-(5-methyl-2H-pyrazol-3-yl)-amine] registered a melting point greater than 250 °C. On Aurora-2, this molecule gave a Ki of less than 100 nM. The Ki at GSK-3β (AA 1-420) lay within 100 to 1000 nM.
As for `CS(=O)(=O)Nc1ccc(Sc2nc(Nc3cc(C4CC4)[nH]n3)c3ccccc3n2)cc1` [IIa-61, (5-Cycloprpyl-2H-pyrazol-3-yl)-[2-(4-methylsulfonylamino-phenylsulfanyl)-quinazolin-4-yl]-amine], the melting point was 235 to 238 °C. Moreover, the Ki at Aurora-2 was less than 100 nM. The Ki on GSK-3β (AA 1-420) was less than 100 nM.
In turn, `Cc1cc(Nc2nc(Sc3ccc(F)cc3F)nc3ccccc23)n[nH]1` [IIa-12, [2-(2,4-Difluorophenylsulfanyl)-quinazolin-4-yl]-(5-methyl-2H-pyrazol-3-yl)-amine] showed a melting point of 256 to 258 °C. Besides, the Ki on Aurora-2 was less than 100 nM. This molecule also returned a Ki on GSK-3β (AA 1-420) of less than 100 nM.
The molecule `CCc1cccc(Nc2nc(Nc3cc(C)[nH]n3)c3ccccc3n2)c1` [IIc-55, [2-(3-Ethylphenylamino)-quinazolin-4-yl]-(5-methyl-2H-pyrazol-3-yl)-amine] registered a melting point of 238 to 239 °C. Also, the inhibition constant (Ki) at Aurora-2 was less than 100 nM. On GSK-3β (AA 1-420), the Ki was in the range of 100 to 1000 nM.
Taken in the same sequence, the figures for `Cc1cc(Nc2nc(Sc3ccc(C(=O)O)cc3)nc3ccccc23)[nH]n1` [IIa-43, [2-(4-Carboxyphenylsulfanyl)-quinazolin-4-yl]-(5-methyl-2H-pyrazol-3-yl)-amine] were 263 to 265 °C, less than 100 nM and less than 100 nM.
Take `Cc1cc(Nc2nc(Sc3ccc(Br)cc3)nc3ccccc23)n[nH]1` [IIa-46, [2-(4-Bromophenylsulfanyl)-quinazolin-4-yl]-(5-methyl-2H-pyrazol-3-yl)-amine]: the melting point was greater than 300 °C. In addition, on Aurora-2, the Ki was less than 100 nM. The Ki at GSK-3β (AA 1-420) was less than 100 nM.
For the molecule `COc1ccc(Oc2nc(Nc3cc(C)[nH]n3)c3ccccc3n2)cc1OC` [IIb-7, [2-(3,4-Dimethoxyphenoxy)-quinazolin-4-yl]-(5-methyl-2N-pyrazol-3-yl)-amine], the melting point lay in the range of 277 to 278 °C. Besides, on Aurora-2, the Ki is less than 100 nM. This molecule also returned a Ki on GSK-3β (AA 1-420) of 100 to 1000 nM.
